Experimental data: patent US20100330172A1, “CONTROLLED-RELEASE PHARMACEUTICAL FORMULATION” (ALPHAPHARM PTY LTD, priority 2007, published 2010)

Key:
[1] = cited from earlier work
[2] = tested on: dopamine uptake; settings: in vitro studies; cited from earlier work
[3] = tested on: norepinephrine uptake; settings: in vitro studies; cited from earlier work
[4] = Desvenlafaxine particle size (MMD); assay type: physicochemical; settings: particle size of desvenlafaxine salt grade
From the text: The “mass mean diameter” or “MMD” refers to the median particle diameter based on mass (i.e. the particle diameter where one half of the mass of particles is contributed by particles with a lesser diameter and one half of the mass of particles is contributed by particles with a greater diameter) and can be measured using various commonly available methods such as measurement using light (eg. light-scattering methods or turbidimetric methods), sedimentation methods (eg. pipette analysis using an Andreassen pipette, sedimentation scales, photo-sedimentometers or sedimentation in a centrifugal force), pulse methods (eg. Coulter counter), or sorting by means of gravitational or centrifugal force.
The particle size of desvenlafaxine utilised in the following formulations are set out in Table 1.

[5] = in vitro dissolution, USP II apparatus (paddles), 50 rpm, pH 6.8 phosphate buffer; assay type: physicochemical; settings: FIG. 1; similar time points; matrix tablets with Eudragit NE40D
Experimental: FIG. 1 is the in vitro dissolution profiles of embodied formulations of the present invention when measured using a USP II apparatus at 50 rpm in pH 6.8 phosphate buffer.
The resulting in vitro dissolution profiles of these batches as tested using a USP II apparatus (paddles) at 50 rpm in pH 6.8 phosphate buffer are set out in Table 3.

Compound | MMD (mass mean diameter) [4] | change in amount of desvenlafaxine dissolved, coarse to fine [5] | other results
CN(C)CC(c1ccc(O)cc1)C1(O)CCCCC1 (racemic) [desvenlafaxine, (+/−)-4-[2-(dimethylamino)-1-(1-hydroxycyclohexyl)ethyl]phenol] | – | – | half-life ([1]; in vivo): about 10 hours; half-life relative to venlafaxine ([1]; times longer than the half-life of venlafaxine): approximately 2.5 times; inhibition of dopamine uptake compared with racemic venlafaxine [2]: more potent inhibitor; inhibition of norepinephrine uptake compared with racemic venlafaxine [3]: more potent inhibitor
CN(C)CC(c1ccc(O)cc1)C1(O)CCCCC1.O=C(O)/C=C/C(=O)O (stereo not shown) [Coarse fumarate] | 184 μm | – | –
CN(C)CC(c1ccc(O)cc1)C1(O)CCCCC1.O=C(O)CCC(=O)O (stereo not shown) [Coarse succinate] | 186 μm | – | –
CN(C)CC(c1ccc(O)cc1)C1(O)CCCCC1.O=C(O)/C=C/C(=O)O (stereo not shown) [Fine fumarate] | 21 μm | approximately similar increase in the amount of desvenlafaxine dissolved | –
CN(C)CC(c1ccc(O)cc1)C1(O)CCCCC1.O=C(O)CCC(=O)O (stereo not shown) [Fine succinate] | 37 μm | marked increase in the amount of desvenlafaxine dissolved | –
